Literature values in patent publication US20090247521A1, “SOLUBLE EPOXIDE HYDROLASE INHIBITORS FOR THE TREATMENT OF ENDOTHELIAL DYSFUNCTION” (Arete Therapeutics, Inc., priority 2007, published 2009).

System: thoracic aortic rings
Conditions: aortic rings from DOCA-salt hypertensive rats that received the s-EH inhibitor, compared with vehicle and normotensive controls

## CCCCCCCCCCCCNC(=O)NC12CC3CC(CC(C3)C1)C2 [ADU, adamantyl dodecyl urea]
  acetylcholine-induced endothelium-dependent vasorelaxation: augmented acetylcholine-induced endothelium-dependent vasorelaxation, similar to that of the normotensive control animals
